According to paper PMC10584170, “Machine learning-based phenotypic imaging to characterise the targetable biology of Plasmodium falciparum male gametocytes for the development of transmission-blocking antimalarials” (PLOS Pathogens, 2023):
Read-outs that look alike come from different tables or passages of the source.

Key:
[1] = test system: P. falciparum male gametocytes; experiment: P. falciparum Dual Gamete Formation Assay (PfDGFA), male readout (exflagellation); format: cell-based, Plasmodium falciparum NF54; conditions: for HitlevelM: number of replicates with >50% inhibition in the male readout; for Selectivity Ratio M: HepG2 Tox50 versus male IC50; for IC50: PfDGFA, 24 h incubation with gametocytes before induction, exflagellation readout, read-out: Male IC50
Outline: (§1)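 First, day-14 P. falciparum NF54 gametocytes receive compound for 24 h at 37°C in 1% O2/3% CO2. Next, ookinete medium with Cy3 anti-Pfs25 triggers gametogenesis at 28°C and male exflagellation is imaged. Finally, after 24 h in the dark, Cy3-labelled females are imaged.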

[2] = test system: P. falciparum female gametocytes; experiment: P. falciparum Dual Gamete Formation Assay (PfDGFA), female readout (Pfs25-positive female gametes); format: cell-based, Plasmodium falciparum NF54; conditions: for HitlevelF: number of replicates with >50% inhibition in the female readout; for Selectivity ratio F: HepG2 Tox50 versus female IC50; for IC50: PfDGFA, 24 h incubation with gametocytes before induction, female gamete readout, read-out: Female IC50
Outline: as §1

HepG2 cells = experiment: HepG2 cytotoxicity counter-screen; conditions: cytotoxic activity against HepG2 cells
[3] = PfDGFA at 2µM, 24h preincubation with gametocytes, average of replicates
[4] = PfDGFA at 2µM, 24h preincubation with gametocytes, replicate R1
[5] = PfDGFA at 2µM, 24h preincubation with gametocytes, replicate R3
[6] = PfDGFA at 2µM, 24h preincubation with gametocytes, replicate R4

SMILES | Selectivity Ratio M [1] | IC50 ([1]; Plasmodium falciparum) | Selectivity ratio F [2] | IC50 ([2]; Plasmodium falciparum) | Tox50 (HepG2 cells) | Average inhibition male (%) [1, 3] | % inhibition male (individual replicates) R1 [1, 4] | % inhibition male (individual replicates) R3 [1, 5] | % inhibition male (individual replicates) R4 [1, 6] | IC50 [1] | HitlevelM ([1]; 2µM) | Average inhibition female (%) [2, 3] | % inhibition female (individual replicates) R1 [2, 4] | % inhibition female (individual replicates) R3 [2, 5] | % inhibition female (individual replicates) R4 [2, 6] | IC50 [2] | HitlevelF ([2]; 2µM) | further results
CN1CCN(c2ccc(Nc3c4ccccc4nc4ccccc34)cc2)CC1 [TCMDC-123912] | 45.1 | 590 nM | 3.01 | 8840 nM | 26.65 µM |  |  |  |  |  |  |  |  |  |  |  |  | HitlevelM ([1]; 2µM, 24h preincubation): 3; inhibition at 2 µM ([1]; Plasmodium falciparum, 2µM, 24h preincubation with gametocytes prior to induction of gametogenesis, average of replicates, read-out: Average inhibition male (%)): 62.8%; inhibition at 2 µM ([1]; Plasmodium falciparum, 2µM, 24h preincubation with gametocytes prior to induction of gametogenesis, replicate R1, read-out: % inhibition male (individual replicates) R1): 83%; inhibition at 2 µM ([1]; Plasmodium falciparum, 2µM, 24h preincubation with gametocytes prior to induction of gametogenesis, replicate R2, read-out: % inhibition male (individual replicates) R2): 83.6%; inhibition at 2 µM ([1]; Plasmodium falciparum, 2µM, 24h preincubation with gametocytes prior to induction of gametogenesis, replicate R3, read-out: % inhibition male (individual replicates) R3): 12.9%; inhibition at 2 µM ([1]; Plasmodium falciparum, 2µM, 24h preincubation with gametocytes prior to induction of gametogenesis, replicate R4, read-out: % inhibition male (individual replicates) R4): 71.6%; HitlevelF ([2]; 2µM, 24h preincubation): 0; inhibition at 2 µM ([2]; Plasmodium falciparum, 2µM, 24h preincubation with gametocytes prior to induction of gametogenesis, average of replicates, read-out: Average inhibition female (%)): 9.1%; inhibition at 2 µM ([2]; Plasmodium falciparum, 2µM, 24h preincubation with gametocytes prior to induction of gametogenesis, replicate R1, read-out: % inhibition female (individual replicates) R1): 23.8%; inhibition at 2 µM ([2]; Plasmodium falciparum, 2µM, 24h preincubation with gametocytes prior to induction of gametogenesis, replicate R2, read-out: % inhibition female (individual replicates) R2): 8%; inhibition at 2 µM ([2]; Plasmodium falciparum, 2µM, 24h preincubation with gametocytes prior to induction of gametogenesis, replicate R3, read-out: % inhibition female (individual replicates) R3): 0.7%; inhibition at 2 µM ([2]; Plasmodium falciparum, 2µM, 24h preincubation with gametocytes prior to induction of gametogenesis, replicate R4, read-out: % inhibition female (individual replicates) R4): 4.1%
COc1ccc(C[C@H](N)C(=O)N[C@H]2[C@@H](O)[C@H](n3cnc4c(N(C)C)ncnc43)O[C@@H]2CO)cc1.Cl [TCMDC-123927] | 4.87 |  | 0.5 |  | 2.01 µM | 79.6% | 87.8% | 64.7% | 82.2% | 410 nM | 4 | 38.8% | 27.9% | 10.7% | 72.0% | 4000 nM | 1 | 
CCc1cc2c(Sc3nnc(N)s3)ncnc2s1 [TCMDC-123993] | 62.08 | 980 nM | 82.32 | 740 nM | 61 µM |  |  |  |  |  | 4 |  |  |  |  |  | 3 | inhibition at 2 µM ([1]; Plasmodium falciparum, PfDGFA at 2µM, 24h preincubation with gametocytes, average of replicates, read-out: Average inhibition male (%)): 88.1%; inhibition at 2 µM ([1]; Plasmodium falciparum, PfDGFA at 2µM, 24h preincubation with gametocytes, replicate R1, read-out: % inhibition male (individual replicates) R1): 91.2%; inhibition at 2 µM ([1]; Plasmodium falciparum, PfDGFA at 2µM, 24h preincubation with gametocytes, replicate R2, read-out: % inhibition male (individual replicates) R2): 88.6%; inhibition at 2 µM ([1]; Plasmodium falciparum, PfDGFA at 2µM, 24h preincubation with gametocytes, replicate R3, read-out: % inhibition male (individual replicates) R3): 87.9%; inhibition at 2 µM ([1]; Plasmodium falciparum, PfDGFA at 2µM, 24h preincubation with gametocytes, replicate R4, read-out: % inhibition male (individual replicates) R4): 84.9%; inhibition at 2 µM ([2]; Plasmodium falciparum, PfDGFA at 2µM, 24h preincubation with gametocytes, average of replicates, read-out: Average inhibition female (%)): 62.7%; inhibition at 2 µM ([2]; Plasmodium falciparum, PfDGFA at 2µM, 24h preincubation with gametocytes, replicate R1, read-out: % inhibition female (individual replicates) R1): 49.4%; inhibition at 2 µM ([2]; Plasmodium falciparum, PfDGFA at 2µM, 24h preincubation with gametocytes, replicate R2, read-out: % inhibition female (individual replicates) R2): 83%; inhibition at 2 µM ([2]; Plasmodium falciparum, PfDGFA at 2µM, 24h preincubation with gametocytes, replicate R3, read-out: % inhibition female (individual replicates) R3): 66.2%; inhibition at 2 µM ([2]; Plasmodium falciparum, PfDGFA at 2µM, 24h preincubation with gametocytes, replicate R4, read-out: % inhibition female (individual replicates) R4): 52.3%
[O-][s+]1c(Cl)c(-c2ccc(Cl)cc2)c2ccc(Cl)cc21 (stereo not shown) [TCMDC-124011] | 123.92 | 140 nM | 125.38 | 140 nM | 17.6 µM |  |  |  |  |  |  |  |  |  |  |  |  | inhibition at 2 µM ([1]; Plasmodium falciparum, 2µM, 24h preincubation with gametocytes, average of replicates, read-out: Average inhibition male (%)): 99.1%; inhibition at 2 µM ([1]; Plasmodium falciparum, 2µM, 24h preincubation with gametocytes, replicate R1, read-out: % inhibition male (individual replicates) R1): 99.4%; inhibition at 2 µM ([1]; Plasmodium falciparum, 2µM, 24h preincubation with gametocytes, replicate R2, read-out: % inhibition male (individual replicates) R2): 99.6%; inhibition at 2 µM ([1]; Plasmodium falciparum, 2µM, 24h preincubation with gametocytes, replicate R3, read-out: % inhibition male (individual replicates) R3): 98.6%; inhibition at 2 µM ([1]; Plasmodium falciparum, 2µM, 24h preincubation with gametocytes, replicate R4, read-out: % inhibition male (individual replicates) R4): 98.9%; inhibition at 2 µM ([2]; Plasmodium falciparum, 2µM, 24h preincubation with gametocytes, average of replicates, read-out: Average inhibition female (%)): 46.7%; inhibition at 2 µM ([2]; Plasmodium falciparum, 2µM, 24h preincubation with gametocytes, replicate R1, read-out: % inhibition female (individual replicates) R1): 29.4%; inhibition at 2 µM ([2]; Plasmodium falciparum, 2µM, 24h preincubation with gametocytes, replicate R2, read-out: % inhibition female (individual replicates) R2): 65.7%; inhibition at 2 µM ([2]; Plasmodium falciparum, 2µM, 24h preincubation with gametocytes, replicate R3, read-out: % inhibition female (individual replicates) R3): 37%; inhibition at 2 µM ([2]; Plasmodium falciparum, 2µM, 24h preincubation with gametocytes, replicate R4, read-out: % inhibition female (individual replicates) R4): 54.7%
CCCCOc1ccc(C(=O)C(CCC(CNC(C)(C)C)C(=O)c2ccc(OCCCC)cc2)CNC(C)(C)C)cc1.Cl (stereo not shown) [TCMDC-124120] | 2.27 |  | 0.84 |  | 3.4 µM | 78.6% | 81.6% | 47.4% | 92.9% | 1500 nM | 3 | 46.8% | 36.1% | 20.3% | 72.1% | 4060 nM | 2 | 
